The EC50 is the midpoint of the concentration-response curve.

Like-named read-outs stand apart in the source and are kept apart here. Starred links: 1 amine or outer side, 2 acyl side, 3 side chain; linkers in the order of their positions; H or OH if unused. Non-standard residues stand in square brackets, D forms with d. Residues, ends and D or L forms follow the SMILES beside them. Groups on a side chain read outwards from the residue. *: point of attachment. C20 diacid = O=C(O)CCCCCCCCCCCCCCCCCCC(=O)*; C18 diacid = O=C(O)CCCCCCCCCCCCCCCCC(=O)*; γGlu = O=C(O)[C@H](CCC(=O)[*:2])N[*:1]; αMeF = C[C@](N)(Cc1ccccc1)C(=O)O; AEEA = NCCOCCOCC(=O)O; Aib = CC(C)(N)C(=O)O

The record followed here is patent publication US20250353891A1 (MEDIMMUNE LIMITED, priority 2022, published 2025).

Experiment [1] has as its target human GLP-1 receptor (hGLP-1R) (Homo sapiens, UniProt P43220). The experiment in a line: cAMP production (HTRF) in CHO cells expressing hGLP-1R. The format is cell-based. Also noted: expressed in transfected cells. The note with it: for EC50: cAMP in CHO hGLP-1R cells, geometric mean, read-out: hGLP-1R EC50; for % Relative Potency Ratio: % GLP-1R activity relative to GLP-1 / % GlucR activity relative to glucagon. Summed up: (§1)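 Potency values represent EC50 from 4-parameter logistic curves of HTRF % Delta F signal. Receptor-expressing CHO cells (hGCGR 2×10^5 cells/mL, hGLP-1R 1×10^5 cells/mL) were exposed for 30 min at room temperature before two-step cAMP detection.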
Background: Cyclic AMP is a second messenger, typically raised through Gs and lowered through Gi signalling.

Experiment [2] concerns the target human glucagon receptor (hGCGR) (Homo sapiens, UniProt P47871). The experiment in a line: cAMP production (HTRF) in CHO cells expressing hGCGR. The format is cell-based. Also noted: expressed in transfected cells. Particulars: cAMP in CHO hGCGR cells, geometric mean, read-out: hGluc-R EC50. Summed up: as §1
The mark [3] stands for this setting: Table 6, peptides modified at position 17.
[4] abbreviates: Table 7, peptides modified at position 20.

Sequence of human GLP-1 receptor (hGLP-1R) (P43220 24-463): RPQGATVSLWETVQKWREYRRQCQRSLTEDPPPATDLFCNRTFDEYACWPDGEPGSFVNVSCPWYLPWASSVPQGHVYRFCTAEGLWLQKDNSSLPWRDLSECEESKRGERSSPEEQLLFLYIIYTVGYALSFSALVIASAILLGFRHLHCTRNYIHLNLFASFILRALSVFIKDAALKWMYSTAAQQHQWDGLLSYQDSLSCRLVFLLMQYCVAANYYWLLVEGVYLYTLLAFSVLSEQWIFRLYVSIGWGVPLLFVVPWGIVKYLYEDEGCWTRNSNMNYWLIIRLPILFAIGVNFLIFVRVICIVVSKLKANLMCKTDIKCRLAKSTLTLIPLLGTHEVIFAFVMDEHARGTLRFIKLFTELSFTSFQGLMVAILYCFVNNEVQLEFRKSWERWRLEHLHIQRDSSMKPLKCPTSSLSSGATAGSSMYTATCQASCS
Sequence of human glucagon receptor (hGCGR) (P47871 26-477): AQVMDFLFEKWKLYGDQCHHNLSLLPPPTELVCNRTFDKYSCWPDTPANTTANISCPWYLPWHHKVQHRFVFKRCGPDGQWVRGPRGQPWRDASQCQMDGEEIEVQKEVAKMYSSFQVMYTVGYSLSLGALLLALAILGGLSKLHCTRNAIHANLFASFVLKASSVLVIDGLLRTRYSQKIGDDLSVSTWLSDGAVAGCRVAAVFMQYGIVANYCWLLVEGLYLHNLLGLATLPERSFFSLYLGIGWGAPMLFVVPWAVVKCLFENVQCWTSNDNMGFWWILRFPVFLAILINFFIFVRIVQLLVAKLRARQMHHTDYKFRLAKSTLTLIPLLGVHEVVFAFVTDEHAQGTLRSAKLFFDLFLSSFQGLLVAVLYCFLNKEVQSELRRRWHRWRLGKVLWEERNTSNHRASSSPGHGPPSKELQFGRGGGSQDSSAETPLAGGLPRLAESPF

Turning to `CC(C)C[C@H](NC(=O)[C@H](Cc1c[nH]c2ccccc12)NC(=O)[C@H](CCCNC(=N)N)NC(=O)[C@@H](NC(=O)[C@H](Cc1ccccc1)NC(=O)[C@H](CC(=O)O)NC(=O)[C@H](CCC(N)=O)NC(=O)[C@H](C)NC(=O)[C@H](CCCNC(=N)N)NC(=O)[C@H](CCCCNC(=O)COCCOCCNC(=O)COCCOCCNC(=O)CC[C@H](NC(=O)CCCCCCCCCCCCCCCCC(=O)O)C(=O)O)NC(=O)[C@@H](NC(=O)[C@H](CC(=O)O)NC(=O)[C@H](CC(C)C)NC(=O)[C@](C)(Cc1ccccc1)NC(=O)[C@H](CCCCN)NC(=O)[C@H](CO)NC(=O)[C@@H](NC(=O)[C@H](CC(=O)O)NC(=O)[C@H](CO)NC(=O)[C@@H](NC(=O)[C@H](Cc1ccccc1)NC(=O)[C@@H](NC(=O)CNC(=O)[C@H](CCC(N)=O)NC(=O)C(C)(C)NC(=O)[C@@H](N)Cc1c[nH]cn1)[C@@H](C)O)[C@@H](C)O)C(C)C)[C@@H](C)O)C(C)C)C(=O)N[C@@H](CC(C)C)C(=O)N[C@@H](CCC(=O)O)C(=O)NC(C)(C)C(=O)NCC(N)=O` [Peptide 185] (H-H[Aib]QGTFTSDVSK[αMeF]LDTK([AEEA-AEEA-γGlu-C18 diacid])RAQDFVRWLLE[Aib]G-NH2; N-terminus assumed), the EC50 is 44.1 pM in experiment [1] (setting [3]) and 230 pM in experiment [2] (setting [3]). Also, the “% Relative Potency Ratio” value in experiment [1] (Table 6) is recorded as 10.3.

As to `CC[C@H](C)[C@H](NC(=O)C(C)(C)NC(=O)[C@H](CCC(N)=O)NC(=O)[C@@H](NC(=O)[C@](C)(Cc1ccccc1)NC(=O)[C@H](CC(=O)O)NC(=O)[C@H](CCCCNC(=O)COCCOCCNC(=O)COCCOCCNC(=O)CC[C@H](NC(=O)CC[C@H](NC(=O)CCCCCCCCCCCCCCCCCCC(=O)O)C(=O)O)C(=O)O)NC(=O)[C@H](C)NC(=O)[C@H](C)NC(=O)[C@H](CCC(N)=O)NC(=O)[C@H](CO)NC(=O)[C@H](CC(=O)O)NC(=O)[C@H](CC(C)C)NC(=O)[C@](C)(Cc1ccccc1)NC(=O)[C@H](CCCCN)NC(=O)[C@H](CO)NC(=O)[C@@H](NC(=O)[C@H](CC(=O)O)NC(=O)[C@H](CO)NC(=O)[C@@H](NC(=O)[C@](C)(Cc1ccccc1)NC(=O)[C@H](CO)NC(=O)CNC(=O)[C@H](Cc1c[nH]cn1)NC(=O)C(C)(C)NC(=O)[C@@H](N)Cc1c[nH]cn1)[C@@H](C)O)C(C)C)C(C)C)C(=O)N[C@@H](C)C(=O)N[C@@H](CC(N)=O)C(=O)N[C@H](C(N)=O)[C@@H](C)O` [Peptide 256] (H-H[Aib]HGS[αMeF]TSDVSK[αMeF]LDSQAAK([AEEA-AEEA-γGlu-γGlu-C20 diacid])D[αMeF]VQ[Aib]IANT-NH2), the EC50 in experiment [1] (setting [4]) is 346 pM; in experiment [2] (setting [4]), 1310 pM. For the same compound, the “% Relative Potency Ratio” value in experiment [1] (Table 7) is given as 7.5.

Consider `CC[C@H](C)[C@H](NC(=O)C(C)(C)NC(=O)[C@H](CCC(N)=O)NC(=O)[C@@H](NC(=O)[C@](C)(Cc1ccccc1)NC(=O)[C@H](CC(=O)O)NC(=O)[C@H](CCCCNC(=O)COCCOCCNC(=O)COCCOCCNC(=O)CC[C@H](NC(=O)CC[C@H](NC(=O)CCCCCCCCCCCCCCCCCCC(=O)O)C(=O)O)C(=O)O)NC(=O)[C@H](C)NC(=O)[C@H](C)NC(=O)[C@H](CCCNC(=N)N)NC(=O)[C@H](CO)NC(=O)[C@H](CC(=O)O)NC(=O)[C@H](CC(C)C)NC(=O)[C@](C)(Cc1ccccc1)NC(=O)[C@H](CCCCN)NC(=O)[C@H](CO)NC(=O)[C@@H](NC(=O)[C@H](CC(=O)O)NC(=O)[C@H](CO)NC(=O)[C@@H](NC(=O)[C@](C)(Cc1ccccc1)NC(=O)[C@H](CO)NC(=O)CNC(=O)[C@H](Cc1c[nH]cn1)NC(=O)[C@H](CO)NC(=O)[C@@H](N)Cc1c[nH]cn1)[C@@H](C)O)C(C)C)C(C)C)C(=O)N[C@@H](C)C(=O)N[C@@H](CC(N)=O)C(=O)N[C@H](C(N)=O)[C@@H](C)O` [Peptide 281] (H-HSHGS[αMeF]TSDVSK[αMeF]LDSRAAK([AEEA-AEEA-γGlu-γGlu-C20 diacid])D[αMeF]VQ[Aib]IANT-NH2), for which the EC50 was 155 pM in experiment [1] (setting [4]) and 1040 pM in experiment [2] (setting [4]). In addition, the “% Relative Potency Ratio” value in experiment [1] (Table 7) is recorded as 13.3.
